Test results from patent publication US20090022803A1, “Oral Formulations For Delivery of Catecholic Butanes Including Ndga Compounds” (priority 2005, published 2009).
Like-named read-outs stand apart in the source and are kept apart here.

Type: physicochemical
Protocol: A 10 mL solution of M4N at a concentration of about 10 mg/mL in 40% BP-β-CD was made as follows. About 10 mL of the 40% HP-β-CD solution were added to a glass beaker containing a stir bar. The beaker was placed on a magnetic plate and the stir bar was set to stir at medium speed. About […] of M4N were slowly added to the 40% HP-β-CD in the center of the beaker with the aid of a spatula. The M4N/40% HP-β-CD mixture was stirred for 2 hr or until all M4N was uniformly suspended without any clumps being present. The M4N/40% HP-β-CD mixture was optionally heated at 80° C. for about 30 min. (or longer if a larger volume of solution was desired, for example, 1 hr at 80° C. for 100 mL of the M4N/HP-β-CD mixture), or longer as needed to ensure complete dissolution of M4N. […] The final M4N/40% HP-β-CD solution was stored at room temperature and was kept protected from light. This process may be scaled up or down to obtain the requisite volume or concentration of M4N. Formulations containing M4N in other cyclodextrin solutions may be similarly made, such as, for example, by substituting HP-β-CD in the process described above with other cyclodextrins. […]
A 10 mL solution of M4N at a concentration of about 10 mg/mL in 50% HP-β-CD/0.5% HPMC was made as follows. About 10 mL of the 50% HP-β-CD/0.5% HPMC solution were added to a glass beaker containing a stir bar. The beaker was placed on a magnetic plate and the stir bar was set to stir at medium speed. About 100 mg of M4N were slowly added to the 50% HP-β-CD/0.5% HPMC in the center of the beaker with the aid of a spatula. The M4N/50% HP-β-CD/0.5% HPMC mixture was stirred for 24 hr or until all M4N was uniformly suspended without any clumps being present. The M4N/50% HP-β-CD/0.5% HPMC mixture was heated at about 90° C. for about 30 min. (or longer if a larger volume of solution was desired, for example, 1 hr at 90° C. for 500 mL of the M4N/50% HP-β-CD/0.5% HPMC mixture), or longer as needed to ensure complete dissolution of M4N. […] The final M4N/50% HP-β-CD/0.5% HPMC solution was stored at room temperature and was kept protected from light.
A 10 mL solution of M4N at a concentration of about 20 mg/mL in 5% EC (w/v) (the “EC formulation”) was made as follows. About 10 mL of 5% EC formulation, made as described above, were added to a glass beaker containing a stir bar. The beaker was placed on a magnetic plate and the stir bar was set to stir at medium speed, and covered with a round Teflon® cover. About 200 mg of M4N were slowly added to the 5% EC formulation in the center of the beaker with the aid of a spatula to prevent M4N from sticking to the beaker wall. The M4N/EC mixture was stirred for 2 hr or until all M4N had dissolved or was uniformly suspended without any clumps being present. The M4N/EC mixture was heated at about 60° C. for about 30 min. (or longer if a larger volume of solution was desired, for example, 1 hr at 60° C. for 500 mL of the M4N/EC mixture), or longer as needed to ensure complete dissolution of M4N. […] The final M4N/EC solution was stored at room temperature and was kept protected from light.
A 10 mL solution of M4N at a concentration of about 50 mg/mL in sesame oil was made as follows. About 10 mL of sesame oil were added to a glass beaker containing a stir bar. The beaker was placed on a magnetic plate and the stir bar was set to stir at medium speed. About 500 mg of M4N were slowly added to the sesame oil in the center of the beaker with the aid of a spatula to prevent M4N from sticking to the beaker wall. The M4N/sesame oil mixture was stirred for about 2 hr or until all M4N had dissolved or was uniformly suspended without any clump being present. The M4N/sesame oil mixture was heated at about 60° C. for about 30 min. (or longer if a larger volume of solution was desired, for example, 1 hr at 60° C. for 500 mL of the M4N/sesame oil mixture), or longer as need to ensure complete dissolution of M4N. […]

In the case of `COc1ccc(C[C@@H](C)[C@@H](C)Cc2ccc(OC)c(OC)c2)cc1OC` [Formulation M4N, meso-1,4-bis(3,4-dimethoxyphenyl)-2,3-dimethylbutane], the “Dissolution After Cool-Down” value (M4N 50 mg/mL in Corn Oil) was “Y”, the “Dissolution After Cool-Down” value (M4N 50 mg/mL in Mineral Oil) was “Y” and the “Dissolution After Cool-Down” value (M4N 50 mg/mL in Sesame Oil) was “Y”. The “Dissolution After Cool-Down” value (M4N 50 mg/mL in Soybean Oil) was “N”, the “Dissolution After Cool-Down” value (M4N 52 mg/mL in 40% Peppermint Oil, 40% PEG 400, 20% Glycerol) was “N” and the “Dissolution After Cool-Down” value (M4N 59 mg/mL in 45% Peppermint Oil, 45% PEG 400, 10% Glycerol) was “N”. The “Dissolution After Cool-Down” value (M4N 60 mg/mL in 0.4% (v/v) Cinnamaldehyde, 5% (w/v) Beeswax, 94.5% (v/v) Olive Oil, cell wraps: Creamy solid) was “Creamy”, the “Dissolution After Cool-Down” value (M4N 60 mg/mL in 33% Peppermint Oil, 33% Tween ® 20, 33% PEG 400) was “Y” and the “Dissolution After Rotation” value (M4N 60 mg/mL in 50% HP-β-CD, 0.5% CMC) was “Suspension”. For the same compound, the “Dissolution After Cool-Down” value (M4N 60 mg/mL in 50% Peppermint Oil, 50% PEG 300) was “Y”, the “Dissolution After Cool-Down” value (M4N 60 mg/mL in 50% Peppermint Oil, 50% PEG 400) was “Y” and the “Dissolution After Cool-Down” value (M4N 60 mg/mL in 50% Peppermint Oil, 50% Sesame Oil) was “Y”. For the same compound, the “Dissolution After Cool-Down” value (M4N 60 mg/mL in 50% Peppermint Oil, 50% Tween ® 20) was “Y”, the “Dissolution After Cool-Down” value (M4N 60 mg/mL in 60% Peppermint Oil, 40% PEG 300) was “Y” and the “Dissolution After Cool-Down” value (M4N 60 mg/mL in 60% Peppermint Oil, 40% PEG 400) was “N”. For the same compound, the “Dissolution After Cool-Down” value (M4N 60 mg/mL in 80% Olive Oil, 20% Soybean Oil) was “N”, the “Dissolution After Cool-Down” value (M4N 60 mg/mL in 85% Sesame Oil, 15% Tween ® 20) was “N” and the “Dissolution After Cool-Down” value (M4N 60 mg/mL in Corn Oil) was “Y”. For the same compound, the “Dissolution After Cool-Down” value (M4N 60 mg/mL in Peppermint Oil) was “Y”, the “Dissolution After Cool-Down” value (M4N 100 mg/g in 50% Soybean Oil, 50% Beeswax (w/w), cell wraps: waxy solid) was “waxy” and the “Dissolution After Rotation” value (M4N 100 mg/mL in 2.3% HPMC) was “N”. For the same compound, the “Dissolution After Cool-Down” value (M4N 100 mg/mL in 5% EC in EtOH) was “N”, the “Dissolution After Rotation” value (M4N 100 mg/mL in 5% EC in EtOH) was “N” and the “Dissolution After Rotation” value (M4N 100 mg/mL in 15% α-CD) was “N”. For the same compound, the “Dissolution After Heating at X° C.” value (M4N 100 mg/mL in 15% α-CD, 90°) was “N at 90°”, the “Dissolution After Rotation” value (M4N 100 mg/mL in 30% HP-β-CD) was “N” and the “Dissolution After Heating at X° C.” value (M4N 100 mg/mL in 30% HP-β-CD, 90°) was “N at 90°”. For the same compound, the “Dissolution After Rotation” value (M4N 100 mg/mL in 40% HP-β-CD) was “N”, the “Dissolution After Heating at X° C.” value (M4N 100 mg/mL in 40% HP-β-CD, 80°) was “N at 80°” and the “Dissolution After Rotation” value (M4N 100 mg/mL in 50% HP-β-CD) was “N”. The “Dissolution After Heating at X° C.” value (M4N 100 mg/mL in 50% HP-β-CD, 90°) was “N at 90°”, the “Dissolution After Cool-Down” value (M4N 100 mg/mL in 50% Peppermint Oil, 50% PEG 400) was “N” and the “Dissolution After Cool-Down” value (M4N 100 mg/mL in Camillia Oil, cell wraps: Creamy solid) was “Creamy”. The “Dissolution After Cool-Down” value (M4N 100 mg/mL in Corn Oil) was “N”, the “Dissolution After Cool-Down” value (M4N 100 mg/mL in Eugenol, Beeswax, Olive Oil, 0.5% (v/v) Eugenol, cell wraps: Creamy solid) was “Creamy” and the “Dissolution After Cool-Down” value (M4N 100 mg/mL in Mineral Oil) was “N”. For the same compound, the “Dissolution After Cool-Down” value (M4N 100 mg/mL in Peppermint Oil) was “Y”, the “Dissolution After Cool-Down” value (M4N 125 mg/mL in 50% Peppermint Oil, 50% PEG 300) was “N” and the “Dissolution After Cool-Down” value (M4N 125 mg/mL in 50% Peppermint Oil, 50% PEG 400) was “N”. For the same compound, the “Dissolution After Cool-Down” value (M4N 125 mg/mL in 50% Peppermint Oil, 50% Tween ® 20) was “N”, the “Dissolution After Cool-Down” value (M4N 125 mg/mL in Peppermint Oil) was “Y” and the “Dissolution After Rotation” value (M4N 150 mg/g in 84% HP-β-CD, 1% HPMC, Lyophilized) was “powder”. For the same compound, the “Dissolution After Rotation” value (M4N 185 mg/g in 81.5% (w/w) HP-β-CD, Lyophilized) was “powder”, the “Dissolution After Cool-Down” value (M4N 200 mg/g in 75% Soybean Oil, 25% Beeswax (w/w), cell wraps: waxy solid) was “waxy” and the “Dissolution After Cool-Down” value (M4N 200 mg/g in 90% Olive Oil, 10% Beeswax (w/w), cell wraps: waxy solid) was “waxy”. The “Dissolution After Cool-Down” value (M4N 200 mg/g in 90% Soybean Oil, 10% Beeswax (w/w), cell wraps: waxy solid) was “waxy”, the “Dissolution After Cool-Down” value (M4N 200 mg/g in 95% Olive Oil, 5% Beeswax (w/w), cell wraps: waxy solid) was “waxy” and the “Dissolution After Cool-Down” value (M4N 200 mg/g in 95% Soybean Oil, 5% Beeswax (w/w), cell wraps: waxy solid) was “waxy”. For the same compound, the “Dissolution After Cool-Down” value (M4N 200 mg/mL in Mineral Oil) was “N”, the “Dissolution After Cool-Down” value (PEG 300 100%, M4N 25 mg/mL, after heating at 50° C.) was “Y” and the “Dissolution After Cool-Down” value (PEG 400 100%, M4N 25 mg/mL, after heating at 50° C.) was “Y”. The “Dissolution After Cool-Down” value (PEG 400 100%, M4N 30 mg/mL, after heating at 50° C.) was “Y”, the “Dissolution After Cool-Down” value (PEG 400 100%, M4N 40 mg/mL, after heating at 50° C.) was “Y” and the “Dissolution After Cool-Down” value (PEG 400 100%, M4N 50 mg/mL, after heating at 60° C.) was “Y”. For the same compound, the “Dissolution After Cool-Down” value (PEG 400 100%, M4N 100 mg/mL, after heating at 60° C.) was “N”, the “Dissolution After Cool-Down” value (PEG 400 mono-laurate 100%, M4N 20 mg/mL, after heating at 50° C.) was “Y” and the “Dissolution After Cool-Down” value (PEG 400 mono-laurate 100%, M4N 50 mg/mL, after heating at 50° C.) was “Y”. The “Dissolution After Cool-Down” value (Propylene Glycol 100% (w/v), M4N 1 mg/mL, after heating at 55° C.) was “Y”, the “Dissolution After Cool-Down” value (Propylene Glycol 100% (w/v), M4N 10 mg/mL, after heating at 55° C.) was “Y” and the “Dissolution After Cool-Down” value (Propylene Glycol 100% (w/v), M4N 20 mg/mL, after heating at 55° C.) was “Y”.
